Assays:
Format in all cases: cell-based
U2OS (DR-GFP) cells = assay: DR-GFP HR reporter assay; conditions: 2.5 μM/L for 6 h, in comparison with DMSO treated group
Method: (§1) FIGS. 6A-6E show TRDMT1 Inhibitors specifically sensitizes cells to DNA damage agents. (FIG. 6A) SCE WT cells were transfected with TA-KR and were cultured with 2.5 μM/L, compound YW-1842 or not for 6 hours, m^5C (n=3, 50 cells per replicated, Mean±SD) was stained and quantified. DR-GFP (FIG. 6B) or EJ5-GFP (FIG. 6C) cells were pre-treated with 2.5 μM/L, compound YW-1842 for 6 h or TRDMT1 siRNA for 48 h, or DMSO. Then the cells were transfected with NLS-I-SceI plasmid to induce DSB. The efficiency of HR (FIG. 6B) or NHEJ (FIG. 6C) was analyzed by flow-cytometry (n=3, Mean±SD). (FIG. 6D) After seeding, MCF-7, HCC1954, and HCC1937 cells were pre-treated with or without 2.5 μM/L compound YW-1842 for 6 h, then cultured with chemotherapy drugs (1 μM/L, Cisplatin; 1 μM/L ATRi AZ20; 10 μM/L, ATMi KU55933; 1 μM/L, PARPi Olaparib for 10 days. The survival rate of these cells was analyzed (n=3, Mean±SD). (FIG. 6E) TRDMT1 KO U2OS cells were transfected with GFP-TRDMT1^WT or GFP-TRDMT1^G155V with or without 2.5 μM/L, compound YW-1842, the survival rate of these cells after IR or Cisplatin was shown (n=3, Mean±SD).
(§2) Using a previously described method[Lan, L. et al. The ACF1 complex is required for DNA double-strand break repair in human cells. […] The GFP signal arising from the recombination (HR) or non-homologous end joining (NHEJ) events were measured by flow cytometry.

[1] = tested on: cancer cell lines (HST578, MBAMD231, HCC1937, HCC1954); assay: Cell survival (colony) assay with TRDMT1i alone, Example 19
Method: FIGS. 14A-14C show TRDMT1i alone reduce cancer cell survival in a dose-dependent manner. (FIG. 14A) Survival rate of HR proficient (HR+) HST578 cancer cells with and without siBRCA1 and/or TRDMT1i YW-1842 at indicated dose. The survival rate of these cells was analyzed (n=3, Mean±SD). (FIG. 14B) Survival rate of MBAMD231 (HR+) and HCC1937 (HRD) cells. The survival rate of these cells was analyzed (n=3, Mean±SD). (FIG. 14C) Cell survival rate in different cancer cell lines via colony-forming assay with the treatment of Imatinib at indicated dose (n=3, mean+/−S.D.). Cell lines are listed in order with the expression level from SYCP2high to SYCP2low.
HCC1500, HCC1954, BT549, MCF7 and MDAMB468 were cultured in Roswell Park Memorial Institute (RPMI) 1640 Medium (Sigma, R8758) with 10% (vol/vol) fetal bovine serum (FBS, XY Cell Culture, FBS-500) at 37° C., 5% CO2. siBRCA1 (L-003461-00, Dharmacon) was transfected with Lipofectamine RNAiMax (Invitrogen; Carlsbad, CA, USA). PARPi Olaparib (AZD2281/Ku-0059436, Sellekchem, S1060) and Pol theta inhibitor Novobiocin (Sigma) were used.
Cells were seeded in each 6-cm dish and cultured as described above. They were treated with drugs with indicated dose in medium after seeding. After 7-10 days, colonies were fixed and stained with 0.3% crystal violet in methanol, and the number of colonies was counted manually.

U2OS (EJ5-GFP) cells = assay: EJ5-GFP NHEJ reporter assay; conditions: 2.5 μM/L for 6 h, TRDMT1 wild type cells
Method: as §1, §2

COc1cc2nc(-n3cc(-c4ccc(S(C)(=O)=O)cc4)cn3)nc(-c3ccsc3)c2cc1OC [YW-1842, 6,7-dimethoxy-2-(4-(4-(methylsulfonyl)phenyl)-1H-pyrazol-1-yl)-4-(thiophen-3-yl)quinazoline]
HR-mediated repair of I-SceI-generated DSBs (U2OS (DR-GFP) cells): diminished the repair of I-SceI-generated DSBs
cell killing of HCC1954 ([1]; HCC1954 (HRD, high SYCP2)): efficiently killed HCC1954
cell survival, TRDMT1i alone ([1]; HR-proficient HST578 cells): kills HR-proficient cancer cells HST578 in a dose-dependent manner
TRDMT1i sensitivity with BRCA1 knockdown ([1]; HST578 cells with siBRCA1): significantly increased
cell killing across cancer cell lines by SYCP2 level and HR status ([1]; cell lines ordered SYCP2high to SYCP2low): killed SYCP2-high cancer cell lines and HR deficient cells the most efficiently
non-homologous end joining (NHEJ) efficiency (U2OS (EJ5-GFP) cells): no obvious changes
